Tests used:
Type in all cases: in vivo
[1] = test system: velvetleaf (Abutilon theophrasti); assay: Example 6, Procedure II: Herbicide No. 1 + alachlor (No. 7) with antidotes
How it was run: (§1)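 Herbicide No. 1 plus alachlor, with or without antidote, was applied in acetone and mixed into a silt loam soil layer covering corn and weed seedbeds. Containers received 0.6 cm overhead irrigation, then greenhouse sub-irrigation. Injury was rated as percent, averaged over duplicates; antidote effect is the injury difference without and with antidote.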

[2] = test system: barnyardgrass (Echinochloa crusgalli); assay: as above
How it was run: as §1

[3] = test system: corn; assay: Example 19, Procedure II: Herbicide No. 1 + ERADICANE EXTRA with added antidotes
How it was run: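 Corn seeded in silt loam, covered with soil incorporating herbicide plus antidote (from acetone); EPTC given as ERADICANE EXTRA (with R-29148 and dietholate). Initial overhead irrigation equal to 0.6 cm rain, then greenhouse sub-irrigation. Percent injury scored; efficacy is injury without antidote minus injury with it.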

[4] = test system: velvetleaf (Abutilon theophrasti); assay: Example 24, Procedure II: Herbicide No. 1 + co-herbicides Nos. 4, 6, 7, 12 with Antidote Nos. 15 and 17-21
How it was run: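 Greenhouse pots, herbicide No. 1 plus co-herbicides and antidote in acetone incorporated into silt loam soil covering the corn seed bed, with giant foxtail and velvetleaf; initial overhead irrigation equal to 0.6 cm rainfall, then sub-irrigation. Antidote at 2.24 kg/ha; percent injury read 13 days after application, duplicate average.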

[5] = test system: corn; assay: Example 18, Procedure II: Herbicide No. 1 + ERADICANE (EPTC + R-25788) with auxiliary antidotes
How it was run: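 Corn seeded in silt loam and covered with soil into which herbicide and antidote, in acetone, were mixed; EPTC given as ERADICANE (with R-25788) at 8.96 kg/ha. Overhead irrigation equal to 0.6 cm rainfall, then greenhouse sub-irrigation. Percent injury scored; antidote efficacy as injury difference with versus without antidote.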

[6] = test system: velvetleaf (Abutilon theophrasti); assay: Example 22: retest of Example 21 at reduced greenhouse temperatures; conditions: Table 22
Experimental: (§2) Containers were filled and compacted with a fumigated silt loam top soil to a depth of about 1.3 cm from the top of the container. A first container was designated as an untreated control, a second container was designated as a herbicide control, and a third container was designated as a herbicide + antidote test container. Each of the containers was seeded with a crop species. A measured amount of herbicide dispersed or dissolved in acetone was applied to a measured quantity of soil. To this same quantity of soil treated with herbicide, there was added a measured amount of antidote dispersed or dissolved in acetone. The quantity of soil treated with the herbicide and antidote was thoroughly mixed to incorporate the herbicide and antidote in the soil uniformly. The seed bed in the third container of soil was covered with the soil treated with the herbicide and antidote and the container was leveled. For each test series, the seed beds of the first and second containers were likewise covered by soil layers. the cover layer of the first container was not treated with herbicide or antidote.
(§3) The containers were then placed on a bench in a greenhouse and sub-irrigated as required for the duration of the test. […] Plant response is measured in terms of percent injury. Antidote efficacy is indicated as the difference in plant injury by the herbicide(s) without the antidote and with the antidote.
(§4) This procedure is the same as Procedure I, but modified in the manner that after incorporation of the chemicals (herbicide and antidote) the containers with the covered seedbed were treated with an initial overhead irrigation equivalent to 0.6 cm rainfall, then subsequently sub-irrigated as required on greenhouse benches.
(§5) In the series of greenhouse tests described below, for routine screening purposes the herbicide/antidote compositions were tested in crop/weed combinations involving corn as the crop and either or both of the weeds barnyardgrass (Echinochloa crusgalli), a monocotyledonous weed, and velvetleaf (Abutilon theophrasti), a dicotyledonous weed. In the tables below, these weeds are indicated by the symbols "BYG" and "VL", respectively.
(§6) In this example, tests were conducted as in the preceding Examples 18-20, except here the co-herbicidal component was SUTAN® PLUS, a commercial product comprising as the active herbicidal ingredient the compound butylate (Herbicide No. 10) and an antidote […] (Antidote No. 1). Again, the antidotal compounds herein were Nos. 1, 2, 7, 13 and 15. Procedure II was used.
(§7) The experiments in this example were designed as a retest of those described in Example 21 in view of the uncharacteristically poor corn safety and weed control, believed to have resulted from unseasonably high temperatures in the greenhouse. Accordingly, temperatures were reduced for these tests.

[7] = test system: barnyardgrass (Echinochloa crusgalli); assay: as above; conditions: Table 22
Experimental: as §2, §3, §4, §5, §6, §7

[8] = Herbicide No.1 0.14 + No.7 4.48 kg/ha + antidote 2.24 kg/ha
[9] = Herbicide No.1 0.14 + No.7 4.48 kg/ha + antidote 8.96 kg/ha
[10] = Herbicide No.1 0.56 + No.7 4.48 kg/ha + antidote 2.24 kg/ha
[11] = Herbicide No.1 0.56 + No.7 4.48 kg/ha + antidote 8.96 kg/ha
[12] = Herbicide No.1 0.56 Kg/ha + SUTAN + 8.96 Kg/ha + antidote 2.24 Kg/ha
[13] = Herbicide No.1 0.56 Kg/ha + SUTAN + 8.96 Kg/ha + antidote 8.96 Kg/ha
[14] = Herbicide No.1 1.12 Kg/ha + SUTAN + 8.96 Kg/ha + antidote 2.24 Kg/ha
[15] = Herbicide No.1 1.12 Kg/ha + SUTAN + 8.96 Kg/ha + antidote 8.96 Kg/ha

CC1(C)OC(c2ccco2)CN1C(=O)C(Cl)Cl (stereo not shown) [compound 15]
% Injury VL [1, 8]: 80% | % Injury VL [1, 9]: 65% | % Injury VL [1, 10]: 90% | % Injury VL [1, 11]: 95% | % Injury BYG [2, 8]: 100% | % Injury BYG [2, 9]: 100% | % Injury BYG [2, 10]: 100% | % Injury BYG [2, 11]: 100% | % Injury Corn ([3]; Herbicide No.1 0.56 kg/ha + ERADICANE EXTRA 8.96 kg/ha, antidote 2.24 kg/ha): 20% | % Injury Corn ([3]; Herbicide No.1 0.56 kg/ha + ERADICANE EXTRA 8.96 kg/ha, antidote 8.96 kg/ha): 30% | % Injury Corn ([3]; Herbicide No.1 1.12 kg/ha + ERADICANE EXTRA 8.96 kg/ha, antidote 2.24 kg/ha): 25% | % Injury Corn ([3]; Herbicide No.1 1.12 kg/ha + ERADICANE EXTRA 8.96 kg/ha, antidote 8.96 kg/ha): 25% | % Inhibition VL ([4]; Herb. No. 1 0.07 Kg/ha + Co-Herb. No. 4 1.12 Kg/ha + antidote 2.24 Kg/ha): 90% | % Inhibition VL ([4]; Herb. No. 1 0.07 Kg/ha + Co-Herb. No. 6 0.14 Kg/ha + antidote 2.24 Kg/ha): 95% | % Inhibition VL ([4]; Herb. No. 1 0.07 Kg/ha + Co-Herb. No. 7 0.28 Kg/ha + antidote 2.24 Kg/ha): 85% | % Inhibition VL ([4]; Herb. No. 1 0.07 Kg/ha + Co-Herb. No. 12 0.28 Kg/ha + antidote 2.24 Kg/ha): 90% | % Inhibition VL ([4]; Herb. No. 1 0.14 Kg/ha + Co-Herb. No. 4 1.12 Kg/ha + antidote 2.24 Kg/ha): 95% | % Inhibition VL ([4]; Herb. No. 1 0.14 Kg/ha + Co-Herb. No. 6 0.14 Kg/ha + antidote 2.24 Kg/ha): 85% | % Inhibition VL ([4]; Herb. No. 1 0.14 Kg/ha + Co-Herb. No. 7 0.28 Kg/ha + antidote 2.24 Kg/ha): 95% | % Inhibition VL ([4]; Herb. No. 1 0.14 Kg/ha + Co-Herb. No. 12 0.28 Kg/ha + antidote 2.24 Kg/ha): 95% | % Inhibition VL ([4]; Herb. No. 1 0.28 Kg/ha + Co-Herb. No. 4 1.12 Kg/ha + antidote 2.24 Kg/ha): 95% | % Inhibition VL ([4]; Herb. No. 1 0.28 Kg/ha + Co-Herb. No. 6 0.14 Kg/ha + antidote 2.24 Kg/ha): 98% | % Inhibition VL ([4]; Herb. No. 1 0.28 Kg/ha + Co-Herb. No. 7 0.28 Kg/ha + antidote 2.24 Kg/ha): 95% | % Inhibition VL ([4]; Herb. No. 1 0.28 Kg/ha + Co-Herb. No. 12 0.28 Kg/ha + antidote 2.24 Kg/ha): 98% | % Inhibition VL ([4]; Herb. No. 1 0.56 Kg/ha + Co-Herb. No. 4 1.12 Kg/ha + antidote 2.24 Kg/ha): 95% | % Inhibition VL ([4]; Herb. No. 1 0.56 Kg/ha + Co-Herb. No. 6 0.14 Kg/ha + antidote 2.24 Kg/ha): 99% | % Inhibition VL ([4]; Herb. No. 1 0.56 Kg/ha + Co-Herb. No. 7 0.28 Kg/ha + antidote 2.24 Kg/ha): 98% | % Inhibition VL ([4]; Herb. No. 1 0.56 Kg/ha + Co-Herb. No. 12 0.28 Kg/ha + antidote 2.24 Kg/ha): 99% | % Injury Corn ([5]; Herbicide No.1 0.56 kg/ha + ERADICANE 8.96 kg/ha, antidote 2.24 kg/ha): 25% | % Injury Corn ([5]; Herbicide No.1 0.56 kg/ha + ERADICANE 8.96 kg/ha, antidote 8.96 kg/ha): 25% | % Injury Corn ([5]; Herbicide No.1 1.12 kg/ha + ERADICANE 8.96 kg/ha, antidote 2.24 kg/ha): 15% | % Injury Corn ([5]; Herbicide No.1 1.12 kg/ha + ERADICANE 8.96 kg/ha, antidote 8.96 kg/ha): 30% | % Injury VL [6, 12]: 70% | % Injury VL [6, 13]: 98% | % Injury VL [6, 14]: 80% | % Injury VL [6, 15]: 80% | % Injury BYG [7, 12]: 85% | % Injury BYG [7, 13]: 90% | % Injury BYG [7, 14]: 85% | % Injury BYG [7, 15]: 90%

Reference: patent publication EP0603240B1, “SAFENING HERBICIDAL PYRAZOLYLSULFONYLUREAS” (priority 1991, dated 1993)
